Tests used:
[1] = tested on: Puccinia recondita f. Sp. Tritici; assay: Fungicidal activity against Puccinia recondita f. sp. tritici / wheat / leaf disc preventative (brown rust); format: in vivo; details: foliar, 200 ppm in the applied formulation, wheat leaf segments, preventative, compared to untreated control leaf disks, read-out: disease control
Method in brief: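 Percent disease control relative to untreated check segments is scored once disease develops, 7 to 9 days after application. Wheat cv. Kanzler segments receive compound spray (200 ppm in formulation) one day before spore inoculation, then sit at 19° C. and 75% rh under 12 h light/12 h dark.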

[2] = tested on: Puccinia recondita f. Sp. Tritici; assay: Fungicidal activity against Puccinia recondita f. sp. tritici / wheat / leaf disc curative (brown rust); format: in vivo; details: foliar, 24 h, 200 ppm in the applied formulation, wheat leaf segments, curative (applied 1 day after inoculation), compared to untreated control leaf disks, read-out: disease control
Method in brief: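 Wheat cv. Kanzler leaf segments on agar, inoculated with rust spore suspension, kept dark at 19° C and 75% RH; formulated compound sprayed 1 day post-inoculation. Incubated 19° C, 75% RH, 12 h light/12 h dark; percent disease control vs untreated scored 6 to 8 days after application.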

Phakopsora Pachyrhizi = assay: Fungicidal activity against Phakopsora pachyrhizi / soybean / leaf disc preventative (Asian soybean rust); format: in vivo; details: foliar, 200 ppm in the applied formulation, soybean leaf disks, compared to untreated control leaf disks, read-out: disease control
Method in brief: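 Scored 12 to 14 days post-application as percent control relative to untreated check discs, rust spores were sprayed under the disc one day after compound treatment. Incubation: 20°C, 75% rh, first 24–36 h in darkness, then 12 h daily light; discs kept on water agar.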

[3] = tested on: Glomerella lagenarium (Colletotrichum lagenarium); assay: Fungicidal activity against Glomerella lagenarium (Colletotrichum lagenarium) liquid culture / cucumber / preventative (anthracnose); format: cell-based; details: Colletotrichum orbiculare; 20 ppm in the applied formulation; liquid culture (PDB), growth inhibition measured photometrically after 3 to 4 days; compared to untreated control; read-out: disease control
Method in brief: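 Percent activity against the untreated check was derived from photometric growth measurements made 2 to 7 days after conidia in potato dextrose broth were combined with compound at 20 ppm. Cultures were kept dark at 24 °C and 96% humidity.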

CON(Cc1ccc(-c2noc(C(F)(F)F)n2)c(F)c1)C(=O)C1CCCO1 (centres unmarked) [Compound 1.578, N-[[3-fluoro-4-[5-(trifluoromethyl)-1,2,4-oxadiazol-3-yl]phenyl]methyl]-N-methoxy-tetrahydrofuran-2-carboxamide]
≥ 80%: pest or weed control at 200 ppm [1] | pest or weed control at 200 ppm [2] | pest or weed control at 200 ppm (Phakopsora Pachyrhizi) | inhibition of growth at 20 ppm [3]

CCCN(Cc1ccc(-c2noc(C(F)(F)F)n2)cc1)C(=O)C1CC1 [Compound 1.574, N-propyl-N-[[4-[5-(trifluoromethyl)-1,2,4-oxadiazol-3-yl]phenyl]methyl]-cyclopropane-carboxamide]
≥ 80%: pest or weed control at 200 ppm [1] | pest or weed control at 200 ppm [2] | pest or weed control at 200 ppm (Phakopsora Pachyrhizi) | inhibition of growth at 20 ppm [3]

CON(Cc1ccc(-c2noc(C(F)(F)F)n2)cc1)C(=O)C(C)O (centres unmarked) [Compound 1.786, 2-hydroxy-N-methoxy-N-[[4-[5-(trifluoromethyl)-1,2,4-oxadiazol-3-yl]phenyl]methyl]-propanamide]
≥ 80%: pest or weed control at 200 ppm [1] | pest or weed control at 200 ppm [2] | pest or weed control at 200 ppm (Phakopsora Pachyrhizi) | inhibition of growth at 20 ppm [3]

CCCN(Cc1ccc(-c2noc(C(F)(F)F)n2)cc1)C(=O)CC [Compound 1.573, N-propyl-N-[[4-[5-(trifluoromethyl)-1,2,4-oxadiazol-3-yl]phenyl]methyl]-propanamide]
≥ 80%: pest or weed control at 200 ppm [1] | pest or weed control at 200 ppm [2] | pest or weed control at 200 ppm (Phakopsora Pachyrhizi) | inhibition of growth at 20 ppm [3]

CCC(C)N(Cc1ccc(-c2noc(C(F)(F)F)n2)cc1)C(=O)C1(C)COC1 (centres unmarked) [Compound 1.395, 3-methyl-N-sec-butyl-N-[[4-[5-(trifluoromethyl)-1,2,4-oxadiazol-3-yl]phenyl]methyl]-oxetane-3-carboxamide]
≥ 80%: pest or weed control at 200 ppm [1] | pest or weed control at 200 ppm [2] | pest or weed control at 200 ppm (Phakopsora Pachyrhizi) | inhibition of growth at 20 ppm [3]

CC1(C(=O)N(Cc2ccc(-c3noc(C(F)(F)F)n3)cc2)C2COC2)CC1 [Compound 1.743, 1-methyl-N-(oxetan-3-yl)-N-[[4-[5-(trifluoromethyl)-1,2,4-oxadiazol-3-yl]phenyl]methyl]-cyclopropane-carboxamide]
≥ 80%: pest or weed control at 200 ppm [1] | pest or weed control at 200 ppm [2] | pest or weed control at 200 ppm (Phakopsora Pachyrhizi) | inhibition of growth at 20 ppm [3]

C#CCN(Cc1ccc(-c2noc(C(F)(F)F)n2)cc1)C(=O)C(C)C [Compound 1.155, 2-methyl-N-prop-2-ynyl-N-[[4-[5-(trifluoromethyl)-1,2,4-oxadiazol-3-yl]phenyl]methyl]-propanamide]
≥ 80%: pest or weed control at 200 ppm [1] | pest or weed control at 200 ppm [2] | pest or weed control at 200 ppm (Phakopsora Pachyrhizi) | inhibition of growth at 20 ppm [3]

O=C(C1CCSCC1)N(Cc1ccc(-c2noc(C(F)(F)F)n2)cc1)C1CC1 [Compound 1.123, N-cyclopropyl-N-[[4-[5-(trifluoromethyl)-1,2,4-oxadiazol-3-yl]phenyl]methyl]-tetrahydrothiopyran-4-carboxamide]
≥ 80%: pest or weed control at 200 ppm [1] | pest or weed control at 200 ppm [2] | pest or weed control at 200 ppm (Phakopsora Pachyrhizi) | inhibition of growth at 20 ppm [3]

COC(=O)ON(Cc1ccc(-c2noc(C(F)(F)F)n2)cc1)C(=O)OC [Compound 2.25, [methoxycarbonyl-[[4-[5-(trifluoromethyl)-1,2,4-oxadiazol-3-yl]phenyl]methyl]-amino]methyl carbonate]
≥ 80%: pest or weed control at 200 ppm [1] | pest or weed control at 200 ppm [2] | pest or weed control at 200 ppm (Phakopsora Pachyrhizi) | inhibition of growth at 20 ppm [3]

CN(Cc1ccc(-c2noc(C(F)(F)F)n2)cc1)C(=O)C1CCCO1 (centres unmarked) [Compound 1.528, N-methyl-N-[[4-[5-(trifluoromethyl)-1,2,4-oxadiazol-3-yl]phenyl]methyl]-tetrahydrofuran-2-carboxamide]
≥ 80%: pest or weed control at 200 ppm [1] | pest or weed control at 200 ppm [2] | pest or weed control at 200 ppm (Phakopsora Pachyrhizi) | inhibition of growth at 20 ppm [3]

C=C(C)C(=O)N(Cc1ccc(-c2noc(C(F)(F)F)n2)cc1)OC [Compound 1.45, N-methoxy-2-methyl-N-[[4-[5-(trifluoromethyl)-1,2,4-oxadiazol-3-yl]phenyl]methyl]-prop-2-enamide]
≥ 80%: pest or weed control at 200 ppm [1] | pest or weed control at 200 ppm [2] | pest or weed control at 200 ppm (Phakopsora Pachyrhizi) | inhibition of growth at 20 ppm [3]

CON(Cc1ccc(-c2noc(C(F)(F)F)n2)cc1F)C(=O)C1CC1 [Compound 1.566, N-[[2-fluoro-4-[5-(trifluoromethyl)-1,2,4-oxadiazol-3-yl]phenyl]methyl]-N-methoxy-cyclopropane-carboxamide]
≥ 80%: pest or weed control at 200 ppm [1] | pest or weed control at 200 ppm [2] | pest or weed control at 200 ppm (Phakopsora Pachyrhizi) | inhibition of growth at 20 ppm [3]

CCC(C)C(=O)N(Cc1ccc(-c2noc(C(F)(F)F)n2)cc1)C(C)C (centres unmarked) [Compound 1.678, N-isopropyl-2-methyl-N-[[4-[5-(trifluoromethyl)-1,2,4-oxadiazol-3-yl]phenyl]methyl]-butanamide]
≥ 80%: pest or weed control at 200 ppm [1] | pest or weed control at 200 ppm [2] | pest or weed control at 200 ppm (Phakopsora Pachyrhizi) | inhibition of growth at 20 ppm [3]

CCOCC(=O)N(OC)C(C)c1ccc(-c2noc(C(F)(F)F)n2)cc1 (centres unmarked) [Compound 1.264, 2-ethoxy-N-methoxy-N-[1-[4-[5-(trifluoromethyl)-1,2,4-oxadiazol-3-yl]phenyl]ethyl]-acetamide]
≥ 80%: pest or weed control at 200 ppm [1] | pest or weed control at 200 ppm [2] | pest or weed control at 200 ppm (Phakopsora Pachyrhizi) | inhibition of growth at 20 ppm [3]

COCC(=O)N(C)Cc1ccc(-c2noc(C(F)(F)F)n2)cc1 [Compound 1.519, 2-methoxy-N-methyl-N-[[4-[5-(trifluoromethyl)-1,2,4-oxadiazol-3-yl]phenyl]methyl]-acetamide]
≥ 80%: pest or weed control at 200 ppm [1] | pest or weed control at 200 ppm [2] | pest or weed control at 200 ppm (Phakopsora Pachyrhizi) | inhibition of growth at 20 ppm [3]

CC(C)C(=O)N(Cc1ccc(-c2noc(C(F)(F)F)n2)cc1)C1CC1 [Compound 1.87, N-cyclopropyl-2-methyl-N-[[4-[5-(trifluoromethyl)-1,2,4-oxadiazol-3-yl]phenyl]methyl]-propanamide]
≥ 80%: pest or weed control at 200 ppm [1] | pest or weed control at 200 ppm [2] | pest or weed control at 200 ppm (Phakopsora Pachyrhizi) | inhibition of growth at 20 ppm [3]

CCC(C)N(Cc1ccc(-c2noc(C(F)(F)F)n2)cc1)C(=O)COCCOC (centres unmarked) [Compound 1.384, 2-(2-methoxyethoxy)-N-sec-butyl-N-[[4-[5-(trifluoromethyl)-1,2,4-oxadiazol-3-yl]phenyl]methyl]-acetamide]
≥ 80%: pest or weed control at 200 ppm [1] | pest or weed control at 200 ppm [2] | pest or weed control at 200 ppm (Phakopsora Pachyrhizi) | inhibition of growth at 20 ppm [3]

O=C(ON(Cc1ccc(-c2noc(C(F)(F)F)n2)cc1)C(=O)C1CCOC1)C1CCOC1 (centres unmarked) [Compound 1.757, [tetrahydrofuran-3-carbonyl-[[4-[5-(trifluoromethyl)-1,2,4-oxadiazol-3-yl]phenyl]methyl]-amino] tetrahydrofuran-3-carboxylate]
≥ 80%: pest or weed control at 200 ppm [1] | pest or weed control at 200 ppm [2] | pest or weed control at 200 ppm (Phakopsora Pachyrhizi) | inhibition of growth at 20 ppm [3]

CC1(C(=O)N(CCO)Cc2ccc(-c3noc(C(F)(F)F)n3)cc2)CC1 [Compound 1.718, N-(2-hydroxyethyl)-1-methyl-N-[[4-[5-(trifiuoromethyl)-1,2,4-oxadiazol-3-yl]phenyl]methyl]-cyctopropane-carboxamide]
≥ 80%: pest or weed control at 200 ppm [1] | pest or weed control at 200 ppm [2] | pest or weed control at 200 ppm (Phakopsora Pachyrhizi) | inhibition of growth at 20 ppm [3]

C=CCNC(=O)N(Cc1ccc(-c2noc(C(F)(F)F)n2)cc1)OC [Compound 3.20, 3-allyl-1-methoxy-1-[[4-[5-(trifluoromethyl)-1,2,4-oxadiazol-3-yl]phenyl]methyl]urea]
≥ 80%: pest or weed control at 200 ppm [1] | pest or weed control at 200 ppm [2] | pest or weed control at 200 ppm (Phakopsora Pachyrhizi) | inhibition of growth at 20 ppm [3]

C#CCN(Cc1ccc(-c2noc(C(F)(F)F)n2)cc1)C(=O)CCC(F)(F)F [Compound 1.169, 4,4,4-trifluoro-N-prop-2-ynyl-N-[[4-[5-(trifluoromethyl)-1,2,4-oxadiazol-3-yl]phenyl]methyl]-butanamide]
≥ 80%: pest or weed control at 200 ppm [1] | pest or weed control at 200 ppm [2] | pest or weed control at 200 ppm (Phakopsora Pachyrhizi) | inhibition of growth at 20 ppm [3]

CCCN(Cc1ccc(-c2noc(C(F)(F)F)n2)cc1)C(=O)C1(C#N)CC1 [Compound 1.665, 1-cyano-N-propyl-N-[[4-[5-(trifluoromethyl)-1,2,4-oxadiazol-3-yl]phenyl]methyl]-cyclopropane-carboxamide]
≥ 80%: pest or weed control at 200 ppm [1] | pest or weed control at 200 ppm [2] | pest or weed control at 200 ppm (Phakopsora Pachyrhizi) | inhibition of growth at 20 ppm [3]

CC(C)C(=O)N(CCO)Cc1ccc(-c2noc(C(F)(F)F)n2)cc1 [Compound 1.707, N-(2-hydroxyethyl)-2-methyl-N-[[4-[5-(trifluoromethyl)-1,2,4-oxadiazol-3-yl]phenyl]methyl]-propanamide]
≥ 80%: pest or weed control at 200 ppm [1] | pest or weed control at 200 ppm [2] | pest or weed control at 200 ppm (Phakopsora Pachyrhizi) | inhibition of growth at 20 ppm [3]
